Measurements: PMC10889091, “Isolation, Characterization, Genome Annotation, and Evaluation of Tyrosinase Inhibitory Activity in Secondary Metabolites of Paenibacillus sp. JNUCC32: A Comprehensive Analysis through Molecular Docking and Molecular Dynamics Simulation” (International Journal of Molecular Sciences, 2024)

Molecular target: T1, mushroom tyrosinase (Agaricus bisporus, UniProt C7FF04)
T1 construct: gene PPO3
Assay: mushroom tyrosinase (Sigma T3824) assay with L-tyrosine, absorbance at […] nm
Assay type: biochemical

T1 sequence (C7FF04 2-392): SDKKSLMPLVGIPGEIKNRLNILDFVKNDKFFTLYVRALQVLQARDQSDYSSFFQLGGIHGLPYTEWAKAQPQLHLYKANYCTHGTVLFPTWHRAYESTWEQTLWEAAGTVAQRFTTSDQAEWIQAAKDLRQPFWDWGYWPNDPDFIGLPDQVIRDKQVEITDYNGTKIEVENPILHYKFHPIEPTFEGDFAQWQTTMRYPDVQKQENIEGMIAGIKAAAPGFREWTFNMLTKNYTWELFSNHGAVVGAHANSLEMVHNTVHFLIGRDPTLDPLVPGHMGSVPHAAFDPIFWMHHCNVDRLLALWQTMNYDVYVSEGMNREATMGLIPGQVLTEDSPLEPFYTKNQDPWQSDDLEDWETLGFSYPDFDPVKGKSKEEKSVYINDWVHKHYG

Question: For `OCCc1c[nH]c2ccccc12` [compound 1, tryptophol], which IC50 is on record?
Answer: 999 µM
